Data: US20190125735A1, “INHIBITION OF P38 MAPK FOR THE TREATMENT OF CANCER” (Board of Regents, The University of Texas System, priority 2015, published 2019)

What was measured:
Foxc2 = assay: Foxc2/FOXC2 protein immunoblotting in 4T1 cells; type: cell-based, mouse
DU145 cells [1] = assay: Tumorsphere assay, DU145 cells; type: cell-based, human; conditions: DU145, SB203580 5 μM, 7 days
Protocol: (§1) Cell lines: Authenticated LNCaP, DU145, and PC3 cells were procured from ATCC and cultured in RPMI with 10% fetal bovine serum (FBS) with penicillin/streptomycin. Cells overexpressing EMT transcription factors and shRNA were also cultured in the same media. HEK293T cells were cultured in DMEM with 10% FBS and penicillin/streptomycin. All cell lines used for this study were recently confirmed negative for mycoplasma contamination.
(§2) Immunoblotting, Immunofluorescence, RTPCR, wound healing- and tumorsphere assays were performed as previously described (Sarkar et al., 2015). Cell viability (MTS) was assessed using the CellTiter96 Aqueous One-Solution Cell Proliferation Assay kit (Promega).

DU145 cells [2] = assay: Morphology and marker expression (qRTPCR, immunoblotting, IF) in DU145 cells; type: cell-based, human
Protocol: as §1, §2

4T1 cells = assay: 4T1 orthotopic mouse mammary carcinoma model (primary tumor, lung metastasis, CTCs); type: in vivo
Text: In order to investigate this, the 4T1 mouse mammary carcinoma model, which recapitulates many of the characteristics of human breast cancer, was employed.
Tumor progression was monitored weekly using caliper measurements and bioluminescence. Starting week 3 post-implantation, 5 mice per group were sacrificed and surgically excised the primary tumors and lungs were surgically excised. […] This observation was corroborated by caliper measurements (FIG. 15C) and the bioluminescent signal emitted by these tumors (FIGS. 20A, 20B). Indeed, there were no significant differences in the latency and growth rates of the vehicle- and SB203580-treated primary tumors during this timecourse (FIGS. 15C and 20B).
NOD/SCID and BALB/c mice were purchased from the Jackson Laboratory (Bar Harbor, Me., USA). To examine primary tumor formation and spontaneous metastasis, luciferase-labeled 4T1 cells (1×10^4 or 5×10^4) were injected into the inguinal mammary fat-pad of BALB/c mice. For experimental metastasis studies, 0.5×10^6 luciferase-labeled MDA-MB-231 cells were injected into NOD/SCID mice via the tail vein. […] Mice were assessed weekly for tumor growth and metastasis via subcutaneous injection of D-Luciferin (150 mg/kg; Caliper LifeSciences, Hopkinton, Mass., USA) and bioluminescent imaging (IVIS imaging system 200 series; Xenogen Corporation, PerkinElmer, Waltham, Mass., USA). Primary tumor size was measured with a caliper as the product of two perpendicular diameters (mm^2). At the indicated timepoints, primary tumors and lungs were surgically excised, imaged and processed for histology.
Mice were orthotopically injected with red fluorescent protein (RFP)/luciferase-labeled 4T1 cells. Starting week 3 post-injection, blood was collected, via cardiac puncture, in EDTA-coated tubes and treated with Ammonium-Chloride-Potassium lysing buffer (Invitrogen). Cells were cultured in RPMI-1640 medium containing 10% fetal bovine serum and penicillin/streptomycin. RFP-positive colonies were counted after 3 days.

ZEB1 = ZEB1 mRNA and protein levels (qRT-PCR, immunoblotting); type: cell-based, human
Text: First, the elevated levels of FOXC2 and ZEB1 transcripts were confirmed in HMLER-FOXC2 cells versus HMLER-vector cells by qRT-PCR (FIG. 19A). […] Accordingly, shRNA-mediated suppression of FOXC2 in a panel of cell lines yielded a >50-fold decrease in ZEB1 mRNA (FIG. 19E) and a >80% reduction in ZEB1 protein levels (FIG. 19F). […] Conversely, a >50-fold increase as found in miR-200b, and a >1000-fold increase in miR-200c, following FOXC2 knockdown compared to control shRNA-transduced counterparts (FIG. 19H). To ascertain whether FOXC2 directly regulates miR-200 or ZEB1 expression, the promoter regions of both miR-200 clusters on chromosomes 1 and 12 as well as the ZEB1 promoter were analyzed, and a conserved FOXC2-binding element within the ZEB1 promoter was identified. […] Furthermore, in support of the notion that p38-mediated phosphorylation of FOXC2 regulates ZEB1 expression, elevated ZEB1 protein levels were only detected in HMLER-FOXC2 and HMLER-FOXC2(S367E) cells (FIG. 19L, lanes 2 and 3), but not in HMLER-FOXC2(S367A) cells (FIG. 19L, lane 4).
Immunoblotting and immunofluorescence (Mani et al., 2008) were performed as previously described. Primary antibodies were as follows: β-actin (Sigma, St Louis, Mo., USA; A3853), mouse anti-human FOXC2 (Dr. Naoyuki Miura, Hamamatsu University School of Medicine, Japan), goat polyclonal anti-FOXC2 (Santa Cruz Biotechnology, Dallas, Tex., USA; sc-21397), p-p38 (Cell Signaling, Danvers, Mass., USA; 4511), p38 (Cell Signaling; 9211), E-cadherin (BD Biosciences, San Jose, Calif., USA; 61081), fibronectin (BD Biosciences; 610077), vimentin (Novus Biologicals, Littleton, Colo., USA; NB200-623), ZEB1 (Novus Biologicals; NBP1-05987), and HA (Covance, Princeton, N.J., USA; MMS-101P).
qRT-PCR was performed using SYBR Green (Applied Biosystems, Waltham, Mass., USA) for mRNAs and Taqman (Applied Biosystems) for microRNAs as described previously (Hollier et al., 2013).

[3] = tested on: HMLE-Snail, HMLE-Twist, MDA-MB-231 and SUM159 cells; assay: FACS CD44high/CD24low of mesenchymal mammary cells; type: cell-based, human; conditions: relative to vehicle-treated cells
Protocol: It was next ascertained whether p38 inhibition compromises the maintenance of the established EMT phenotype.
Quantification of invadopodia (Eckert et al., 2011), scratch/wound-healing assays (Sarkar et al., 2015) fluorescence-activated cell sorting (FACS), and sphere-formation assays (Mani et al., 2008) were conducted as described previously.

SMILES: C[S+]([O-])c1ccc(-c2nc(-c3ccc(F)cc3)c(-c3ccncc3)[nH]2)cc1 (stereo not drawn) [SB203580, 4-(4-Fluorophenyl)-2-(4-methylsulfinylphenyl)-5-(4-pyridyl) 1H-imidazole]
- Phosphomimetic FOXC2(S367E) levels (Foxc2; 4T1-FOXC2(S367E) cells): remained unaltered
- Endogenous Foxc2 protein levels (Foxc2; 4T1 cells, 24 h): significant reduction of endogenous Foxc2 protein levels
- Endogenous Foxc2 protein levels (Foxc2; vector-transduced 4T1 cells): abolished endogenous Foxc2 protein levels
- Tumorsphere formation (DU145 cells [1]): significant reduction
- AR and PSA expression (DU145 cells [2]; DU145, 5 μM, 7 days): restoration of AR and PSA expression
- Expression of Bmi1 and Sox2 (DU145 cells [2]; DU145, 5 μM, 7 days): significant reduction
- FOXC2 expression (DU145 cells [2]; DU145, 5 μM, 7 days): dramatic loss in FOXC2 expression
- Morphology / phenotype (DU145 cells [2]; DU145, 5 μM, 7 days): acquisition of an epithelial phenotype
- Expression of AR, PSA and E-cadherin over time (qRTPCR) (DU145 cells [2]; DU145, days 0-7 after treatment): consistently increased right after 48 hours, but reached highest levels at day 7
- Primary tumor size (4T1 cells; 4T1 cells, daily treatment, weeks 3-6): primary tumors of a similar size relative to vehicle-treated counterparts
- Lung metastases (bioluminescent signal) (4T1 cells; 4T1 cells, systemic daily treatment): strikingly fewer lung metastases
- Metastatic burden (lung) (4T1 cells; mice harboring 4T1-FOXC2(S367E) cells): failed to significantly reduce the metastatic burden
- Reduction of incidence of lung metastases compared to vehicle (4T1 cells; mice harboring 4T1-vector cells, daily SB203580): > 20 fold
- Primary tumor growth (4T1 cells; mice harboring 4T1-vector or 4T1-FOXC2(S367E) cells): no significant differences in primary tumor growth
- Microvessel density of primary tumors (CD31 immunohistochemistry) (4T1 cells; vs vehicle-treated): did not reveal significant differences
- CTCs recovered from blood (4T1 cells; week 6 post-implantation): very few CTCs were recovered
- CTCs recovered from blood (4T1 cells; weeks 3-5 post-implantation): no CTCs were recovered from SB203580-treated mice until week 5
- ZEB1 protein levels (ZEB1; HMLER-FOXC2(S367E) cells): remained relatively high
- ZEB1 protein levels (ZEB1; HMLER-FOXC2 cells): decreased
- Reduction of ZEB1 mRNA and protein levels compared to vehicle (ZEB1; SB203580 treatment): > 60 fold
- Percentage of cells displaying the CD44^high/CD24^low antigenic profile [3]: substantially reduced
